Measurements taken from patent US6191152A, “2-(1,2,4-triazole-1-yl)-1,3,4-thiadiazole derivatives having an effect on the C.N.S. and the heart” (EGIS Gyogyszergyar Rt., priority 1997, dated 2001).
pIC50: −log10 of the molar value.

Assays:
[1] = test system: isolated rat thoracic aorta; assay: Vascular relaxing effect in potassium chloride (20 mM KCl) contracted isolated rat thoracic aorta; design: species or system rat (male SPRD); details: for pIC50: Rattus norvegicus, 20 mM KCl contracted strips, 37° C., read-out: IC50 (vascular relaxation in isolated rat thoracic aorta)
Method: 1. Measurement of Vascular Relaxing Effect in Potassium Chloride Contracted Isolated rat Thoracic Aorta
Experiments were performed in thoracic aortas obtained from male SPRD rats weighing 250 to 300 g. Thoracic aortas excised from rats killed by decapitation and ensanguination were cleaned of fat and connective tissue, then were immediately placed in carbogenized TYRODE solution. The composition of the normal TYRODE solution was the following (in mM): NaCl 114.7, KCl 3.7, CaCl2 3.6, MgCl2 0.49, NaHCO3 19.9, NaH2 PO4 0.32, glucose 5.1.
Two mm wide and 20 to 25 mm long strips were cut from the aortas along a helical line at 45° angle. Aortic strips were mounted vertically between two cotton threads in 10 ml organ chambers, the lower threads were attached to the organ chambers and the upper threads were connected to isometric force transducers. The strips were incubated under 1 g resting tension at 37° C. for 120 minutes, then resting vascular tone was recorded. Then the strips were contracted with a TYRODE solution containing 20 mM KCl. The composition of the high potassium TYRODE solution was the following (in mM): NaCl 94.7, KCl 20, CaCl2 3.6, MgCl2 0.49, NaHCO3 19.9, NaH2 PO4 0.32, glucose 5.1.
When stable vascular tone developed, increasing doses of the test substance were added to the organ bath. The effects of each test substance were measured at least in 3 tissue preparations obtained from different animals. Decreases in vascular tension caused by the test substances were expressed as percentage changes and IC50 for each tissue preparation was determined by sigmoid (in few casses linear) curve fitting.
For comparison, cromakalim i.e. (±)-trans-3,4-dihydro-3-hydroxy-2,2-dimethyl-4-(2-oxo-1-pyrrolidinyl)-2H-1-benzopyrane-6-carbonitrile was used.

[2] = test system: isolated guinea-pig papillary muscle; assay: Effective refractory period (ERP) prolonging effect in isolated guinea-pig right ventricular papillary muscle, in vitro; design: species or system guinea-pig (male); details: for ERP change at 10^-4 M / ERP change at 10^-5 M: 30 minutes incubation, mean of at least four preparations
Description: 2. Measurement of Effective Refracter Period in Guinea-pig Right Ventricular Papillary Muscle, in Vitro.
Effective refracter period (ERP) is regarded to be the shortest time interval between two identical electrical stimuli when both can evoke a twitch in the papillary muscle. A second stimulus applied earlier than the ERP is not effective. Compounds prolonging ERP can have antiarrhythmic effect. This method is useful primarily for testing antiarrhythmic agents belonging to class III according to the Vaughan Williams classification /Bexton, R. S. and Camm. A., J. Pharmacol. Ther., 17, 315 (1982)/.
Experiments were performed in a Schuler-type organ bath system having 4 channels. Male guinea-pigs weighing 450 to 750 g were killed by a blow on the head and ensanguinated. The heart was rapidly excised and papillary muscles of appropriate size (lower than 1 mm in diameter) were dissected from the right ventricle. The preparations were vertically mounted in 20 ml organ chambers containing Krebs solution bubbled with carbogen (consisting of 95% of O2 and 5% of CO2) and maintained at 35° C. The upper end of the muscles was connected with cotton threads to force-displacement transducers coupled to a recorder for measuring isometric tension via DC-bridge amplifiers. The lower end of the papillary muscles was pinned to the organ chamber with a silver hook that was also used as a stimulating electrode. The other electrode was immersed into the organ bath and had no direct contact with the preparation. The composition of the Krebs solution was the following (in mm): NaCl 118, KCl 4.8, NaHCO3 27.2, glucose 11.1, MgSO4 1.2, KH2 PO4 1, CaCl2 2.6, pH=7.4.
The preparations were equilibrated for 120 minutes under a resting tension of 1 g. During equilibration they were electrically stimulated at a rate of 2 Hz with 1 msec rectangular pulses that were above the diastolic threshold voltage by 10%. ERP was determined using a standard extrastimulus technique. Extrastimuli (S2) were interjected between the normal stimuli (S1) in such a way that the S1 -S2 interval was initially below the refracter period of the tissue. The S1 -S2 interval was then widened by increments of 1 msec until the extrastimulus (S2) evoked twitch of the papillary muscle. The force of the twitch caused by S2 is larger than those caused by normal (S1) stimuli (postextrasystolic potentiation). The equipment measured the shortest S1 -S2 interval at which the extrastimulus evoked a twitch that was larger than the force of control twitches by 25%. This interval is equivalent with the ERP.
The experimental protocol was as follows:
Two control ERP measurements were performed 20 minutes apart, then appropriate amount of the test substance was added to produce 10^-4 M concentration in the bathing solution. After 30 minutes incubation with the test substance, two ERP measurements were performed 30 minutes apart.
When the test substance increased ERP at 10^-4 M by 40 msec or more, its effect on ERP was tested also at 10^-5 M.
The effect of the test substances was characterized by the difference between the first treated and the second control measurements. Individual data obtained from four different preparations, at least, were averaged. The reference substance used was sotalol i.e. N-[4-/1-hydroxy-2-(1-methylethylamino)ethyl/plenyl]methane sulfonamide.

| Compound | pIC50 [1] | vascular relaxation of isolated rat thoracic aorta (in words) [1] | ERP prolongation (in words) [2] | ERP change at 10^-4 M [2] [msec] | ERP change at 10^-5 M [2] [msec] |
| --- | --- | --- | --- | --- | --- |
| CC1(C)Oc2ccc(C#N)cc2[C@@H](N2CCCC2=O)[C@@H]1O (racemic) [cromakalim, (±)-trans-3,4-dihydro-3-hydroxy-2,2-dimethyl-4-(2-oxo-1-pyrrolidinyl)-2H-1-benzopyrane-6-carbonitrile, reference compound] | 6.89 | – | – | – | – |
| CC(C)Sc1nc(N)n(-c2nnc(-c3ccccc3OCCCN(C)C)s2)n1 [Example 30, 2-/5-Amino-3-(2-methylethylthio)-1H-1,2,4-triazole-1-yl/-5-/ 2-(3-dimethylaminopropoxy)phenyl/-1,3,4-thiadiazole] | 7.17 | relaxed isolated rat thoracic aorta more effectively than the K^+ channel opener and Ca^2+ channel blocker reference substances | – | – | – |
| CN(C)CCCOc1ccccc1-c1nnc(-n2nc(N3CCCCC3)nc2N)s1 [Example 32, 2-(5-Amino-3-piperidino-1H-1,2,4-triazole-1-yl)-5-/ 2-(3-dimethylaminopropoxy)phenyl/-1,3,4-thiadiazole] | – | – | remarkable also at 10^-5 M | 155 | 158 |
| CCN(CC)CCOc1ccc(-c2nnc(-n3nc(SC)nc3N)s2)cc1 [Example 36, 2-(5-Amino-3-methylthio-1H-1,2,4-triazole-1-yl)-5-/ 4-(2-diethylaminoethoxy)phenyl/-1,3,4-thiadiazole] | – | – | – | 53 | 15 |
| CSc1nc(N)n(-c2nnc(-c3ccccc3OCCCN3CCCC3)s2)n1 [Example 43, 2-(5-Amino-3-methylthio-1H-1,2,4-triazole-1-yl)-5-/ 2-(3-pyrrolidinopropoxy)phenyl/-1,3,4-thiadiazole] | – | – | – | 66 | 34 |
| CN(C)CCCOc1ccc(-c2nnc(-n3nc(N4CCN(C)CC4)nc3N)s2)cc1 [Example 47, 2-/5-Amino-3-(4-methylpiperazine-1-yl)-1H-1,2,4-triazole-1-yl/-5-/ 4-(3-dimethylaminopropoxy)phenyl/-1,3,4-thiadiazole] | – | – | – | 123 | 2 |
| C=CCN(CC=C)c1nc(N)n(-c2nnc(-c3ccccc3OCCCN(C)C)s2)n1 [Example 49, 2-(5-Amino-3-diallylamino-1H-1,2,4-triazole-1-yl)-5-/ 2-(3-dimethylaminopropoxy)phenyl/-1,3,4-thiadiazole] | 6.77 | – | – | – | – |
| CC(C)NCC(O)c1ccc(NS(C)(=O)=O)cc1 (centres unmarked) [sotalol, N-[4-/1-hydroxy-2-(1-methylethylamino)ethyl/plenyl]methane sulfonamide, reference compound] | – | – | – | 47 | 26 |

More lines, main results first:

| pIC50 [1] | Compound | vascular relaxation of isolated rat thoracic aorta (in words) [1] | ERP prolongation (in words) [2] | ERP change at 10^-4 M [2] [msec] | ERP change at 10^-5 M [2] [msec] |
| --- | --- | --- | --- | --- | --- |
| 7.15 | CN(C)CCCOc1ccccc1-c1nnc(-n2nc(N(C)C)nc2N)s1 [Example 29, 2-(5-Amino-3-dimethylamino-1H-1,2,4-triazole-1-yl)-5-/ 2-(3-dimethylaminopropoxy)phenyl/-1,3,4-thiadiazole] | relaxed isolated rat thoracic aorta more effectively than the K^+ channel opener and Ca^2+ channel blocker reference substances | – | – | – |
| 6.89 | COc1ccc(CCN(C)CCCOc2ccccc2-c2nnc(-n3nc(N4CCCCC4)nc3N)s2)cc1OC [Example 99, 2-(5-Amino-3-piperidino-1H-1,2,4-triazole-1-yl)-5-{2-[3-methyl-3-/ 2-(3,4-dimethoxyphenylethyl)amino/-propoxy]phenyl}-1,3,4-thiadiazole] | – | – | – | – |
| 7.12 | COc1ccc(CCN(C)CCCOc2ccccc2-c2nnc(-n3nc(SC(C)C)nc3N)s2)cc1OC [Example 101, 2-/5-Amino-3-(1-methylethylthio)-1H-1,2,4-triazole-1-yl/-5-{2-[3-methyl-3-/2-(3,4-dimethoxyphenylethyl)amino/propoxy]-phenyl}-1,3,4-thiadiazole] | relaxed isolated rat thoracic aorta more effectively than the K^+ channel opener and Ca^2+ channel blocker reference substances | – | – | – |
| < 6.00 | COc1ccc(CCN(C)CCCOc2cccc(-c3nnc(-n4nc(SC)nc4N)s3)c2)cc1OC [Example 105, 2-(5-Amino-3-methylthio-1H-1,2,4-triazole-1-yl)-5-{3-[3-methyl-3-/ 2-(3,4-dimethoxyphenylethyl)amino/propoxy]phenyl}-1,3,4-thiadiazole] | – | – | 62 | 14 |
| < 5.00 | COc1ccc(CCN(C)CCCOc2ccc(-c3nnc(-n4nc(SC)nc4N)s3)cc2)cc1OC [Example 108, 2-(5-Amino-3-methylthio-1H-1,2,4-triazole-1-yl)-5-{4-[3-methyl-3-/ 2-(3,4-dimethoxyphenylethyl)amino/propoxy]phenyl}-1,3,4-thiadiazole] | – | – | 66 | 29 |
